Reference: US7659397B2, “Pyrithione complex compound, process for producing the same and use thereof” (priority 2003, dated 2010)
Where two headings read alike, the source gives them in different places.

How the values were obtained:
[1] = test system: Aspergillus niger ATCC 6275; experiment: Antibacterial test (MIC), agar medium; settings: Potato dextrose agar medium, 30° C., 7 days
[2] = for Solubility in seawater, Molecular weight conversion / Solubility in seawater, Dissolved zinc-copper: pH = 8.2
Method: Formulation of artificial seawater (g/L)
0.1 g of the sample was added in 500 mL of artificial seawater, which was then stirred at 20° C. and 30° C. for 4 hours and filtered, and the filtrate was subjected to atomic absorption analysis.

[3] = test system: Escherichia coli NBRC 3972; settings: for Minimum growth inhibitive concentration of bacteria, Escherichia coli: NB agar medium with lactose, 30° C., 3 days
Method: (§1) Preparation of a sample: the extract was dissolved in dimethylsulfoxide, to which an aqueous 0.1 W % Tween 80 was added to make a sample solution.
NB agar medium to which lactose is added, 30° C., 3 days

[4] = test system: Staphylococcus aureus NBRC 12732; settings: for Minimum growth inhibitive concentration of bacteria, Staphylococcus aureus: Soybean casein digest agar medium, 30° C., 5 days
Method: as §1
Soybean casein digest agar medium, 30° C., 5 days

[5] = test system: Malassezia furfur NBRC 0656; settings: YM agar medium with olive oil, 30° C., 6 days
Method: as §1
YM agar medium to which olive oil is added, 30° C., 6 days

[6] = 2% by weight in purified water, well-lighted room, one week
Excerpt: (§2) The pyrithione complex compound represented by the formula (I) is used as an antidandruff agent to be formulated in hair-care products such as shampoos and hair rinses like conventional zinc pyrithione. […] Also, the zinc pyrithione/zinc oxide complex compound and zinc pyrithione were respectively added to purified water in an amount of 2% by weight and each suspension was allowed to stand in a well-lighted room to observe the degree of coloration of the suspension.

[7] = Weathering of polyethylene resin molded article (color difference, yellow index); type: physicochemical; settings: for ΔE* / ΔYI: Sample after hung in the sun versus before; for degree of coloring: after hung in the sun, ranking
Method: Then, the resin materials were respectively applied to a sheet having a size of 200 mm×200 mm×1.1 mm by press molding in the condition of 140° C. and 200 kgf/cm^2. Two test pieces of 30 mm×110 mm were cut from each of the four sheets and hung in the sun from 8 a.m. to 5 p.m. for five fine weather days selected from among the term between Sep. 15 and […].

[8] = test system: Bacillus subtilis IFO 3215; experiment: Antibacterial test (MIC), shake culture; type: cell-based; settings: 24 hours
Method: (§3) Preparation of a sample: the white powder is added in a fixed concentration.
(§4) Culture condition: 28° C., 24 hours, shake culture

[9] = test system: Escherichia coli IFO 3972; experiment: Antibacterial test (MIC), shake culture; type: cell-based; settings: 24 hours
Method: as §3, §4

[10] = Stability in DMSO (coloring of filtrate); type: physicochemical
Method: 2 g of each of these four compounds was added in 10 g of DMSO, allowed to stand at ambient temperature in a laboratory and filtered, to examine coloring of the filtrate. Then, the filter residue was again added to 10 g of DMSO to carry out the same operation.

[11] = test system: Pseudomonas aeruginosa IAM 1514; experiment: Antibacterial test (MIC), alone and combined with isothiazolone preparation; type: cell-based; settings: Table 3, Example 16
Method: as §3, §4

[12] = test system: oculus membrane mucosa; settings: aqueous 2.0 W % suspension instilled in the eye
Excerpt: as §2

[13] = Sample after hung in the sun, five days
[14] = Sample before hung in the sun, 0.15 parts in LDPE

| Compound | Minimum growth inhibitive concentration of bacteria, Aspergillus niger [1] | Solubility in seawater, Molecular weight conversion ([2]; 20° C.) | Solubility in seawater, Molecular weight conversion ([2]; 30° C.) | Minimum growth inhibitive concentration of bacteria, Escherichia coli [3] | Minimum growth inhibitive concentration of bacteria, Staphylococcus aureus [4] | Minimum growth inhibitive concentration of bacteria, Malassezia furfur [5] | degree of coloration of the suspension [6] | Solubility in seawater, Dissolved zinc-copper ([2]; 20° C.) | ΔE* [7] | ΔYI [7] | L* [7, 13] | YI [7, 13] | a* [7, 13] | b* [7, 13] | L* [7, 14] | YI [7, 14] | a* [7, 14] | b* [7, 14] | degree of coloring [7] | also measured |
| --- | --- | --- | --- | --- | --- | --- | --- | --- | --- | --- | --- | --- | --- | --- | --- | --- | --- | --- | --- | --- |
| On1ccccc1=S.On1ccccc1=S.[Cu] [Copper pyrithione] | 20 mg/L | 0.1 µg/mL | 0.2 µg/mL |  |  |  |  |  |  |  |  |  |  |  |  |  |  |  |  |  |
| [O-2].[O-][n+]1ccccc1S.[O-][n+]1ccccc1S.[O-][n+]1ccccc1S.[O-][n+]1ccccc1S.[O-][n+]1ccccc1S.[O-][n+]1ccccc1S.[Zn+2].[Zn+2].[Zn+2].[Zn+2] [Example 3 Chloroform extract, zinc pyrithione-zinc oxide complex compound] |  | 3.2 µg/mL | 4.3 µg/mL | 10 mg/L | 1.25 mg/L | 5 mg/L | slightly yellowed | 0.82 (Zn) mg/L | 11.52 | 19.93 | 81.92 | 21.52 | −3.05 | 11.52 | 84.78 | 1.58 | −0.28 | 0.71 | smaller | antibacterial ability to Escherichia coli ([3]; compared with zinc pyrithione): higher; antibacterial ability to Staphylococcus aureus ([4]; compared with zinc pyrithione): higher |
| Zinc pyrithione |  | 6.1 µg/mL | 7.4 µg/mL | 20 mg/L | 2.5 mg/L | 5 mg/L | colored in yellow |  | 20.18 | 34.00 | 82.16 | 34.70 | −5.00 | 19.68 | 86.87 | 0.71 | −0.79 | 0.51 | the largest | Minimum growth inhibitive concentration of bacteria, Bacillus subtilis ([8]; Table 1, Example 14, 28° C.): 2.5 mg/L; Minimum growth inhibitive concentration of bacteria, Bacillus subtilis ([8]; Table 2, Example 15, 28° C.): 1 mg/L; Minimum growth inhibitive concentration of bacteria, Escherichia coli ([9]; Table 1, Example 14, 28° C.): 5 mg/L; Minimum growth inhibitive concentration of bacteria, Escherichia coli ([9]; Table 2, Example 15, 28° C.): 2.5 mg/L; coloring of the first filtrate ([10]; 2 g in 10 g of DMSO, ambient temperature): brown appearance; coloring of the second filtrate ([10]; filter residue again added to 10 g of DMSO): brown appearance; Minimum growth inhibitive concentration of bacteria, Pseudomonas aeruginosa [11]: >1000 mg/L; primary irritation (criterion by the Draize method) [12]: slightly irritant |
| [Cu+2].[Cu+2].[Cu+2].[O-][n+]1ccccc1[S-].[O-][n+]1ccccc1[S-].[O-][n+]1ccccc1[S-].[O-][n+]1ccccc1[S-].[O-][n+]1ccccc1[S-].[O-][n+]1ccccc1[S-].[O]=[Cu] [Example 9 Chloroform extract, copper pyrithione/copper (II) oxide complex compound] | 5 mg/L | 0.6 µg/mL | 0.6 µg/mL |  |  |  |  | 0.14 (Cu) mg/L |  |  |  |  |  |  |  |  |  |  |  | Solubility in seawater, Dissolved zinc-copper ([2]; 30° C.): 0.15 (Cu) mg/L; solubility in seawater ([2]; as stated in the description): about 0.6 ppm |
